Source: paper PMC12504763, “Antiproliferation, 3D-multicellular spheroid and VEGFR-2 inhibitory properties of spiroindolin-2-ones with phosphonate function” (Scientific Reports, 2025)
Where two headings read alike, the source gives them in different places.

Tests used:
VEGFR-2 [1] = target: T1, VEGFR-2 (Homo sapiens, UniProt P35968); assay: cell-based; format: cell-based; conditions: for inhibition at 10 µM: MCF7; for VEGFR-2 pg/mL ± SEM MCF7: at 10 μM, control 258.70 ± 2.3
T1 construct: endogenous in cells; host or cells: HCT116, PaCa2, MCF7 (human cancer cell lines, ATCC origin)
T1 sequence (P35968 20-1356): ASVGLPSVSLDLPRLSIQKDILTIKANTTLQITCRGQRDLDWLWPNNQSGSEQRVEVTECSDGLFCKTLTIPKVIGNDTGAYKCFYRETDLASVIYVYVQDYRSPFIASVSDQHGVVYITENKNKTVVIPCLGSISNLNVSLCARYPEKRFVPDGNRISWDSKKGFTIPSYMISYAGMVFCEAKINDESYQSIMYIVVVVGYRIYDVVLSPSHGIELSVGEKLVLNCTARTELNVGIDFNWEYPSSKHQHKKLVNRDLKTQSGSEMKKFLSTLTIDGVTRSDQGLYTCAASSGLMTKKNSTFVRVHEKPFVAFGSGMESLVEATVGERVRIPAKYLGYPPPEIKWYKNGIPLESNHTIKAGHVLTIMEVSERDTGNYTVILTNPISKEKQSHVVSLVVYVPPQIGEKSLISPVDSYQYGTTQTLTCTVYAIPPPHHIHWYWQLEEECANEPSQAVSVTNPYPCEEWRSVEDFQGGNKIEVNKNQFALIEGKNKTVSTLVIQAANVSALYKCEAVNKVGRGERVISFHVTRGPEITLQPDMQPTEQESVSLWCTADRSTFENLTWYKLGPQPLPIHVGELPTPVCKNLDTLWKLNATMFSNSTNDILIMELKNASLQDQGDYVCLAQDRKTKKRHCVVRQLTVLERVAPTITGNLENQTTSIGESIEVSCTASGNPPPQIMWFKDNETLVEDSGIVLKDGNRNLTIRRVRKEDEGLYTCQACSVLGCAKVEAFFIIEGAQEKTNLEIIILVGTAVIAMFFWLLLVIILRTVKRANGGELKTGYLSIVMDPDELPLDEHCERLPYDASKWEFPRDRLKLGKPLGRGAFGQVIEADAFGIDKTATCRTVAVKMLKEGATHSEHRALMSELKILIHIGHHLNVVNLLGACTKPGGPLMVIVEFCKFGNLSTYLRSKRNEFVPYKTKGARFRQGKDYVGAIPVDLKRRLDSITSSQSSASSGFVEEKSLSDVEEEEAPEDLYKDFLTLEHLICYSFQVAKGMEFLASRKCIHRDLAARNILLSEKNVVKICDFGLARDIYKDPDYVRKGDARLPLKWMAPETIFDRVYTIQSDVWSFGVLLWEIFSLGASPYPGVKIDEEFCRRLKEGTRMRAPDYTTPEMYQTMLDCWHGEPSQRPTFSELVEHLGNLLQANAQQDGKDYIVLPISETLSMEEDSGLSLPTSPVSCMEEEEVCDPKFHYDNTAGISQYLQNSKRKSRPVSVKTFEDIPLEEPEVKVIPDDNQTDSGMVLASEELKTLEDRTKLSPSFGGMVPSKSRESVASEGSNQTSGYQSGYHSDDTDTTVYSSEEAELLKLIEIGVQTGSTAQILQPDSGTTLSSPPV

TNF-α [2] = assay: TNF-α inhibitory properties (ELISA), PaCa2 cell lysate; format: cell-based, human; conditions: at 10 μM; for TNF-α pg/mL (± SEM) PaCa2: control 111.8 ± 2.0
[3] = tested on: RPE1 (normal human immortalized retinal pigment epithelial cell line); assay: cells; format: cell-based; conditions: Homo sapiens, RPE-1; MTT, normal RPE1 cell; read-out: IC50, μM ± SEM RPE1
COX-1 = target: T2, COX-1 (Ovis aries, UniProt P05979); assay: biochemical; conditions: 3 replicates, read-out: % Inhibition of COX-1 ± SEM
T2 construct: purchased BioVision incorporated USA K548–100
T2 sequence (P05979 25-600): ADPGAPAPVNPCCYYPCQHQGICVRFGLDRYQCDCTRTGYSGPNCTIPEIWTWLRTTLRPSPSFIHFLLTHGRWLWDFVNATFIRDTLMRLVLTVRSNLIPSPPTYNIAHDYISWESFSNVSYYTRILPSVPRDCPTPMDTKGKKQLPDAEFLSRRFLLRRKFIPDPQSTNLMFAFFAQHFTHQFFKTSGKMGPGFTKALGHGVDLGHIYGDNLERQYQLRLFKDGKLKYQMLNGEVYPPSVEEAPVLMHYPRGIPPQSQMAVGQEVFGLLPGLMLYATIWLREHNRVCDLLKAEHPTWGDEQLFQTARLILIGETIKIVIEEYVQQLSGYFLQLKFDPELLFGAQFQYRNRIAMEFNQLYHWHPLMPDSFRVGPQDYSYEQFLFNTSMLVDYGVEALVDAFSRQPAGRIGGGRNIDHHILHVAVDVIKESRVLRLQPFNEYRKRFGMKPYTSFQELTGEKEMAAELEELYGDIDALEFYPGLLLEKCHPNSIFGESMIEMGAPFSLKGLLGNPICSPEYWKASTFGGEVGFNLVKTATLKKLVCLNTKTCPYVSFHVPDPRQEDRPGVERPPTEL

[4] = tested on: MCF7 (breast) cancer cell line; assay: 2D-monolayer antiproliferation (MTT) against MCF7; format: cell-based, human; conditions: for IC50: Homo sapiens, MTT, 72 h incubation, MCF7 breast, read-out: IC50, μM ± SEM MCF7; for SI (selectivity index) MCF7: IC50 of RPE1 normal cell/IC50 of MCF7
TNF-α [5] = assay: TNF-α inhibitory properties (ELISA), MCF7 cell lysate; format: cell-based, human; conditions: at 10 μM; for TNF-α pg/mL (± SEM) MCF7: control 83.26 ± 1.1
COX-2 = target: T3, COX-2 (Homo sapiens, UniProt P35354); assay: biochemical; conditions: for inhibition at 10 µM: 3 replicates, read-out: % Inhibition of COX-2 ± SEM; for SI (selectivity index, COX-2/COX-1): at 10 μM
T3 construct: purchased BioVision incorporated USA K548–100
T3 sequence (P35354 18-604): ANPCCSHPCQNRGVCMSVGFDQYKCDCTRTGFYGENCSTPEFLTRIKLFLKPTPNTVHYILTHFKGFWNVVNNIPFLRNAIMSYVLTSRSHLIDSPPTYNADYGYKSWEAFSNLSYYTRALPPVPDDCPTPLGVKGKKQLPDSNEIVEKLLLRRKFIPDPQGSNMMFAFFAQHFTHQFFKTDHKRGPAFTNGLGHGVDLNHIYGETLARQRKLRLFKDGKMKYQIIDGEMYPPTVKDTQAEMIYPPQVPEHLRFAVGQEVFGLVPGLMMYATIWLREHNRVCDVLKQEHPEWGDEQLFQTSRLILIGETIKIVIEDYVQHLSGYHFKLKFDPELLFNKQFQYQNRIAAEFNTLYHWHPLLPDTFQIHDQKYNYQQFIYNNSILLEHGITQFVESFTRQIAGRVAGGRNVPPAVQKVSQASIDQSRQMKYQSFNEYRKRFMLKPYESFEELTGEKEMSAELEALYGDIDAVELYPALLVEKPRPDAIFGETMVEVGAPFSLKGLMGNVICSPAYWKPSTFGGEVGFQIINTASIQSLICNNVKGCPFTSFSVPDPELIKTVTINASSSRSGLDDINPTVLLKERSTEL

TNF-α [6] = assay: TNF-α inhibitory properties (ELISA), HCT116 cell lysate; format: cell-based, human; conditions: for TNF-α % inhibition HCT116 / TNF-α pg/mL (± SEM) HCT116: at 10 μM; for TNF-α pg/mL (± SEM) HCT116: control 95.74 ± 0.5
[7] = tested on: HCT116 (colon) cancer cell line; assay: 2D-monolayer antiproliferation (MTT) against HCT116; format: cell-based, human; conditions: for IC50: Homo sapiens, HCT-116; for SI (selectivity index) HCT116: IC50 of RPE1 normal cell/IC50 of HCT116
VEGFR-2 [8] = target: T1, VEGFR-2; assay: cell-based; format: cell-based; conditions: for inhibition at 10 µM: PaCa-2, PaCa2; for VEGFR-2 pg/mL ± SEM PaCa2: at 10 μM, control 326.80 ± 1.9
VEGFR-2 [9] = target: T1, VEGFR-2; assay: cell-based; format: cell-based; conditions: for inhibition at 10 µM: HCT-116, HCT116; for VEGFR-2 pg/mL ± SEM HCT116: at 10 μM, control 317.80 ± 3.5
[10] = tested on: PaCa2 (pancreatic) cancer cell line; assay: 2D-monolayer antiproliferation (MTT) against PaCa2; format: cell-based, human; conditions: for 1/(observed property): 1/observed IC50 (μM), PaCa2; for IC50: Homo sapiens, PaCa-2, MTT, 72 h incubation, PaCa2 pancreatic, read-out: IC50, μM ± SEM PaCa2; for SI (selectivity index) PaCa2: IC50 of RPE1 normal cell/IC50 of PaCa2
[11] = tested on: A549 (lung) cancer cell line; assay: 2D-monolayer antiproliferation (MTT) against A549; format: cell-based, human; conditions: for IC50: Homo sapiens, MTT, 72 h incubation, A549 lung, read-out: IC50, μM ± SEM A549; for SI (selectivity index) A549: IC50 of RPE1 normal cell/IC50 of A549
[12] = MTT, 72 h incubation, HCT116 colon, read-out: IC50, μM ± SEM HCT116
[13] = log of observed IC50 (μM), HCT116, read-out: Log(observed property) (converted)

Row | SMILES | inhibition at 10 µM (VEGFR-2 [1]) [%] | VEGFR-2 pg/mL ± SEM MCF7 (VEGFR-2 [1]) [pg/mL] | TNF-α % inhibition PaCa2 (TNF-α [2]) [%] | TNF-α pg/mL (± SEM) PaCa2 (TNF-α [2]) [pg/mL] | IC50 [3] [µM] | inhibition at 10 µM (COX-1) [%] | IC50 [4] [µM] | SI (selectivity index) MCF7 [4] | TNF-α % inhibition MCF7 (TNF-α [5]) [%] | TNF-α pg/mL (± SEM) MCF7 (TNF-α [5]) [pg/mL] | inhibition at 10 µM (COX-2) [%] | TNF-α % inhibition HCT116 (TNF-α [6]) [%] | TNF-α pg/mL (± SEM) HCT116 (TNF-α [6]) [pg/mL] | IC50 [7, 12] [µM] | IC50 [7, 13] [µM] | SI (selectivity index) HCT116 [7] | inhibition at 10 µM (VEGFR-2 [8]) [%] | VEGFR-2 pg/mL ± SEM PaCa2 (VEGFR-2 [8]) [pg/mL] | inhibition at 10 µM (VEGFR-2 [9]) [%] | VEGFR-2 pg/mL ± SEM HCT116 (VEGFR-2 [9]) [pg/mL] | further results
1 | CCOP(=O)(OCC)N1C/C(=C\c2ccc(F)cc2)C(=O)C2(C1)C(c1ccc(F)cc1)CN(C)C21C(=O)Nc2ccc(C)cc21 (centres unmarked) [Compound 17g, Diethyl (E)-(5′′-(4-fluorobenzylidene)-4′-(4-fluorophenyl)-1′,5-dimethyl-2,4′′-dioxodispiro[indoline-3,2′-pyrrolidine-3′,3′′-piperidin]-1′′-yl)phosphonate] | 75 | 64.80 ± 0.5 | 12.9 | 97.4 ± 3.6 | 19 ± 0.647 | 62.1 ± 3.1 | 5.43 ± 0.152 | 3.5 | 0.3 | 83.0 ± 3.2 | 51.8 ± 2.8 | 14.6 | 81.75 ± 2.1 | 5.01 ± 0.364 | 5.01 | 3.8 | 77.7 | 72.80 ± 0.9 | 69 | 98.40 ± 1.2 | 1/(observed property) [10]: 0.1641; IC50 [10]: 6.09 ± 0.132 µM; SI (selectivity index) PaCa2 [10]: 3.1; IC50 [11]: 8.15 ± 0.277 µM; SI (selectivity index) A549 [11]: 2.3
2 | CCOP(=O)(OCC)N1C/C(=C\c2ccc(F)cc2)C(=O)C2(C1)C(c1ccc(F)cc1)CN(C)C21C(=O)Nc2ccccc21 (centres unmarked) [Compound 17e, Diethyl (E)-[5′′-(4-fluorobenzylidene)-4′-(4-fluorophenyl)-1′-methyl-2,4′′-dioxodispiro[indoline-3,2′-pyrrolidine-3′,3′′-piperidin]-1′′-yl]phosphonate] | 55 | 116.50 ± 1.0 | 12.7 | 97.6 ± 1.6 | 16.6 ± 0.907 | 55 ± 3.6 | 5.64 ± 0.273 | 2.9 | 1.7 | 81.87 ± 3.0 | 59.6 ± 1.3 | 1.5 | 94.27 ± 0.7 | 6.99 ± 0.101 | 6.99 | 2.4 | 61 | 127.43 ± 1.3 | 66.2 | 107.50 ± 2.0 | SI (selectivity index, COX-2/COX-1) (COX-2): 1.08; 1/(observed property) [10]: 0.1055; IC50 [10]: 9.48 ± 0.278 µM; SI (selectivity index) PaCa2 [10]: 1.8; IC50 [11]: 7.73 ± 0.155 µM; SI (selectivity index) A549 [11]: 2.1
3 | CCOP(=O)(OCC)N1C/C(=C\c2ccc(Cl)cc2)C(=O)C2(C1)C(c1ccc(Cl)cc1)CN(C)C21C(=O)Nc2ccccc21 (centres unmarked) [Compound 17h, Diethyl (E)-[5′′-(4-chlorobenzylidene)-4′-(4-chlorophenyl)-1′-methyl-2,4′′-dioxodispiro[indoline-3,2′-pyrrolidine-3′,3′′-piperidin]-1′′-yl]phosphonate] | 79.6 | 52.70 ± 0.7 | 76.3 | 26.5 ± 0.7 | 8.15 ± 0.675 | 53.5 ± 2.8 | 4.07 ± 0.054 | 2.0 | 74.0 | 21.65 ± 3.1 | 51.5 ± 3.1 | 80.7 | 18.45 ± 1.1 | 3.08 ± 0.165 | 3.08 | 2.6 | 94.4 | 18.25 ± 0.6 | 83.7 | 51.74 ± 1.5 | SI (selectivity index, COX-2/COX-1) (COX-2): 1.06; TNF-α inhibition fold of the standard ibuprofen (TNF-α [6]; 10 μM): 3.6 fold; TNF-α inhibition fold of the standard indomethacin (TNF-α [6]; 10 μM): 1.9 fold; potency fold of the standard drug 5-fluorouracil ([7]; HCT116, ratio of IC50): 6.6 fold; potency fold of the standard drug sunitinib ([7]; HCT116, ratio of IC50): 3.1 fold; IC50 [10]: 6.35 ± 0.17 µM; SI (selectivity index) PaCa2 [10]: 1.3; IC50 [11]: 4.15 ± 0.288 µM; SI (selectivity index) A549 [11]: 2.0
